Target: T1, APOL1 G1 (Homo sapiens, UniProt O14791, I384M/S342G)
T1 sequence (O14791 28-398 S342G/I384M): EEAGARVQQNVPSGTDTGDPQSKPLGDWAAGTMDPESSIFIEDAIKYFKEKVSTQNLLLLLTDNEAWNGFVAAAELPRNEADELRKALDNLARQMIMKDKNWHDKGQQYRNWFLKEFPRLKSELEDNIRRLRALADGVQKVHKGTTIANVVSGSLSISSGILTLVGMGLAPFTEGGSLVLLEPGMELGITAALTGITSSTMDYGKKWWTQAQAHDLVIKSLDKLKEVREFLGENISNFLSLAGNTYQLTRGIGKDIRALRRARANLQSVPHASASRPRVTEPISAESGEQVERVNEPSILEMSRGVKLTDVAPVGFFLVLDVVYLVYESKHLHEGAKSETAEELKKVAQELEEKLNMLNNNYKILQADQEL
Assay: MultiTox-Fluor Multiplex Cytotoxicity Assay, tet-inducible APOL1 G1 T-REx-HEK293 cells
Type: cell-based
Design: expressed in transfected cells; host or cells: T-REx HEK293, clone G1 DC3.25 (pAAVS1-Puro-APOL1 G1)
Details: for IC90: HEK293, Multi-Tox Assay, APOL1 variant (G0/G1/G2) of the HEK293 cells not given, read-out: Multi-Tox Assay IC90; for Multi-Tox Assay Max Activity (%): APOL1 variant not given
Outline: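 T-REx-HEK293 cells carrying tet-inducible APOL1 G1 induced with 50 ng/mL tet alongside compound (top 10 µM, 10-point 3-fold, duplicate) for 24 h at 37 °C. MultiTox-Fluor dead/live protease fluorescence ratio read after 30 min; normalized to no-tet (100% viability) and tet-treated (0%) controls, then curve-fitted.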

Row | SMILES | IC90 [nM] | Multi-Tox Assay Max Activity (%)
1 | CCOCCn1cc([C@@H]2C[C@]3(C[C@H](C)N2)OC[C@@H](O)c2cc(Cl)sc23)nn1 [Compound 257] | 50 to 500 | 101.0
2 | CNC(=O)C(C)Cn1cc([C@@H]2C[C@]3(C[C@H](C)N2)OC[C@@H](O)c2cc(Cl)sc23)nn1 (some centres unmarked) [Compound 258] | > 500 | 98.0
3 | C[C@H]1C[C@@]2(C[C@@H](c3cn(Cc4ccc(O)cc4)nn3)N1)OC[C@@H](O)c1cc(Cl)sc12 [Compound 259] | 50 to 500 | 100.0
4 | Cc1cccc(OCC(O)Cn2cc([C@@H]3C[C@]4(C[C@H](C)N3)OC[C@@H](O)c3cc(Cl)sc34)nn2)c1 (some centres unmarked) [Compound 260] | 50 to 500 | –
5 | Cc1ccccc1C(O)Cn1cc([C@@H]2C[C@]3(C[C@H](C)N2)OC[C@@H](O)c2cc(Cl)sc23)nn1 (some centres unmarked) [Compound 261] | 50 to 500 | 100.0
6 | C[C@H]1C[C@@]2(C[C@@H](c3cn(CCc4ccncn4)nn3)N1)OC[C@@H](O)c1cc(Cl)sc12 [Compound 262] | 50 to 500 | –
7 | COC(=O)Cn1cc([C@@H]2C[C@]3(C[C@H](C)N2)OC[C@@H](O)c2cc(Cl)sc23)nn1 [Compound 263] | > 500 | 86.0
8 | CC(CO)CCn1cc([C@@H]2C[C@]3(C[C@H](C)N2)OC[C@@H](O)c2cc(Cl)sc23)nn1 (some centres unmarked) [Compound 264] | 50 to 500 | 100.0
9 | C[C@H]1C[C@@]2(C[C@@H](c3cn(CC4CCS(=O)(=O)C4)nn3)N1)OC[C@@H](O)c1cc(Cl)sc12 (some centres unmarked) [Compound 265] | 50 to 500 | –
10 | C[C@H]1C[C@@]2(C[C@@H](c3cn(Cc4ccc(OC5CCOCC5)cc4)nn3)N1)OC[C@@H](O)c1cc(Cl)sc12 [Compound 266] | 50 to 500 | 100.0
11 | C[C@H]1C[C@@]2(C[C@@H](c3cn(CC4CCOCC4)nn3)N1)OC[C@@H](O)c1cc(Cl)sc12 [Compound 267] | 50 to 500 | –
12 | C[C@H]1C[C@@]2(C[C@@H](c3cn(Cc4cccc5c4OCCO5)nn3)N1)OC[C@@H](O)c1cc(Cl)sc12 [Compound 268] | 50 to 500 | –
13 | C[C@H]1C[C@@]2(C[C@@H](c3cn(CC4CCOC4)nn3)N1)OC[C@@H](O)c1cc(Cl)sc12 (some centres unmarked) [Compound 269] | 50 to 500 | –
14 | COCC1(Cn2cc([C@@H]3C[C@]4(C[C@H](C)N3)OC[C@@H](O)c3cc(Cl)sc34)nn2)CC1 [Compound 270] | > 500 | 93.0
15 | C[C@H]1C[C@@]2(C[C@@H](c3cn(Cc4cccc(CO)c4)nn3)N1)OC[C@@H](O)c1cc(Cl)sc12 [Compound 271] | 50 to 500 | 97.0
16 | Cc1nnc(Cn2cc([C@@H]3C[C@]4(C[C@H](C)N3)OC[C@@H](O)c3cc(Cl)sc34)nn2)[nH]1 [Compound 272] | > 500 | 95.0
17 | C[C@H]1C[C@@]2(C[C@@H](c3cn(CCC4CCCOC4)nn3)N1)OC[C@@H](O)c1cc(Cl)sc12 (some centres unmarked) [Compound 273] | 50 to 500 | 101.0
18 | Cc1ccnn1CCn1cc([C@@H]2C[C@]3(C[C@H](C)N2)OC[C@@H](O)c2cc(Cl)sc23)nn1 [Compound 274] | 50 to 500 | 97.0
19 | C[C@H]1C[C@@]2(C[C@@H](c3cn(Cc4ccc(O)nc4)nn3)N1)OC[C@@H](O)c1cc(Cl)sc12 [Compound 275] | > 500 | 94.0
20 | C[C@H]1C[C@@]2(C[C@@H](c3cn(Cc4cnccn4)nn3)N1)OC[C@@H](O)c1cc(Cl)sc12 [Compound 276] | 50 to 500 | 100.0
21 | Cc1ncc(Cn2cc([C@@H]3C[C@]4(C[C@H](C)N3)OC[C@@H](O)c3cc(Cl)sc34)nn2)cn1 [Compound 277] | 50 to 500 | 100.0
22 | COc1cccc(Cn2cc([C@@H]3C[C@]4(C[C@H](C)N3)OC[C@@H](O)c3cc(Cl)sc34)nn2)c1 [Compound 278] | 50 to 500 | 100.0
